# Results: PMC12040169 (PLOS Biology, 2025)
# Experiment: in vitro
# Details: human, hela cells, % viability
row,Compound,"viability at 28.5 h, 10 µM [%]"
1,CN1CCN(CCOC(=O)N2CCCC(C(F)(F)F)C2)CC1 (stereo not drawn) [CBK200207],87.2
2,CN(C)C(=O)C(C)(C)Oc1cc(C(F)(F)F)n(C)n1 [CBK056980],94.2
3,CS(=O)(=O)Nc1cccc(C2=NN(C(=O)CCC(=O)O)C(c3cccc(F)c3)C2)c1 (stereo not drawn) [CBK268804],85
4,O=C(CCn1c(-c2cccnc2)cc2cccnc21)NC1CCCCC1 [CBK282647],85.8
5,CN1CCC[C@H]1C(=O)N1CCC(Cn2cncn2)(C2CCCCC2)CC1 [CBK136818],101
6,CCc1nn(CC(=O)NC(C)C)c(=O)c2cc3ccsc3n12 [CBK284131],82.6
7,O=C(NCCSCc1ccco1)Nc1cccc(Cl)c1 [CBK268277],99.2
8,COc1cccc(C(NC(=O)C2COc3c(cccc3OC)C2)c2ccccc2)c1 (stereo not drawn) [CBK285736],94.7
9,O=c1[nH]c2ncc(-c3cccc4ncccc34)nc2n1C1CCCCC1 [CBK064861],109
10,Cc1c(-c2noc(-c3ccc4c(c3)OCO4)n2)nnn1Cc1ccccc1 [CBK288609],116
11,Cn1ncc(N2CCC(CNC(=O)c3ccc(F)cc3Cl)C2)cc1=O (stereo not drawn) [CBK306643],97.1
12,COc1ccc(OC[C@@H]2C3CCC(C3)N2C(=O)C2CC2)cc1 (stereo partly drawn) [CBK284602],94.7
13,CN(C)CCCNc1c(N)c(=O)oc2ccccc12 [CBK261468],94.3
14,NC(=O)[C@@H]1C[C@@H](O)[C@H](O)[C@H]2[C@@H]1N(c1ccccc1)C(=S)N2Cc1ccc(F)cc1 [CBK288928],102
15,CCN1CC2(CCN(Cc3nc4ccccc4s3)CC2)c2ccccc21 [CBK136993],108
16,CCCNC(=O)NCCc1cccs1 [CBK043675],102
17,O=C(O)C[C@@H]1CCN(C(=O)C2CCCCC2)C[C@@H]1CC1=NCCc2ccccc21 [CBK289158],101
18,CN1CC(c2ccccc2)C2(CCNCC2)C1 (stereo not drawn) [CBK282225],105
19,CCN(CC)C(=O)c1cccc(NS(=O)(=O)c2cccc(C(=O)O)c2)c1 [CBK296943],97.6
20,Cc1cc(CNC(=O)CCn2ccc(C)n2)on1 [CBK281485],97.3
21,CCOc1ccccc1C(=O)Nc1cnc(-c2cccc(OC(F)(F)F)c2)c(-c2cccnc2)n1 [CBK036952],114
22,Cc1ccc(C2(CN3CCN(CC4CCOC4)CC3)CC2)cc1 (stereo not drawn) [CBK282479],86.1
23,CC(c1ccccc1)c1nc2cnccn2c1NC(C)(C)C (stereo not drawn) [CBK283533],92.3

row,Compound,"viability at 28.5 h, 10 µM [%]"
1,O=C(c1cscn1)N1CCCCC1c1nc2ccccc2[nH]1 (stereo not drawn) [CBK283394],91
2,CC(=O)N1CCCC(c2cc3cccnc3n2CCN2CCCC2)C1 (stereo not drawn) [CBK284591],96.8
3,O=C1CSC(c2cccc(Cl)c2Cl)N1C1CCCCC1 (stereo not drawn) [CBK020678],96.7
4,Cc1nc(C)c(C(=O)Nc2c(C)noc2C)s1 [CBK200313],105
5,COc1ccc2c(c1)CCC1CN(C)N=C21 (stereo not drawn) [CBK010890],100
6,COc1cncc(-c2cc(Nc3ccc(O)cc3C)ncn2)c1 [CBK091061],103
7,Nc1cc(NC(=O)c2cccc(C(=O)Nc3ccc(Cl)c(N)c3)c2)ccc1Cl [CBK261379],94.1
8,COc1ccc([C@@]23CC[C@@H](NC(=O)Nc4ccc(Cl)c(C(F)(F)F)c4)C[C@@H]2N(C)CC3)cc1OC [CBK038224C],98.4
9,COc1ccc(C(=O)O)cc1S(=O)(=O)N1CCCCCC1 [CBK261742],99.2
10,O=C(CN1CCC(c2ccc(F)cc2)CC1)N1CCCCC1 [CBK283640],101
11,c1cnc(Oc2ccc(CN3CCCC(c4cn[nH]c4)C3)cc2)cn1 (stereo not drawn) [CBK306416],86.6
12,Nc1ncc(-c2ccc(OC(F)(F)F)cc2)nc1-c1ccc(O)cc1 [CBK122506],95.8
13,CC(C)CC(NS(=O)(=O)c1cccc2nsnc12)C(=O)O (stereo not drawn) [CBK217288],94.2
14,N#Cc1c(SCC(=O)N2CCc3ccccc3C2)nsc1SCC(=O)N1CCc2ccccc2C1 [CBK267453],93.6
15,CN1C(=O)C(CC(=O)Nc2ccc(F)cc2)N(CCc2ccccc2)C1=S (stereo not drawn) [CBK263861],118
16,COCC1CCCN1C(=O)c1cnn2c(C)c(Cc3cccc(C#N)c3)c(C)nc12 (stereo not drawn) [CBK162099],99.6
17,O=S(=O)(c1ccc(Cl)cc1)c1ccc2ccnc(N3CCCNCC3)c2c1 [CBK036416C],82.9
18,C=CCn1c2ccccc2c2nnc(SCC(=O)OCN3C(=O)c4ccccc4C3=O)nc21 [CBK263231],106
19,O=C(c1ccccc1NS(=O)(=O)c1ccc(Br)cc1)N1CCOCC1 [CBK043340],100
20,COc1ccccc1C1(O)CCN(CC(O)c2ccc3c(c2)OCCO3)CC1 (stereo not drawn) [CBK286482],90.1
21,CCC(=O)Nc1ccc(-c2csc(N3CCSCC3)n2)cc1 [CBK306469],87
22,CN(C)CCCOC(=O)CN1c2ccccc2CCc2ccccc21 [CBK022863C],97
23,CC(NC(=O)CSc1ncc(-c2ccccc2)nn1)c1ccccc1 (stereo not drawn) [CBK267514],85.7

row,Compound,"viability at 28.5 h, 10 µM [%]"
1,COc1ccc(Cl)cc1CN(C)C(=O)c1ccc(C)[nH]c1=O [CBK305794],92.9
2,O=C(NC(c1ccc(F)cc1)c1cnccn1)C1CCN(S(=O)(=O)c2cccc(Cl)c2)CC1 (stereo not drawn) [CBK060013],85.1
3,CCCCc1nnc(CC(C)C)o1 [CBK008679],106
4,CN1C[C@@H](C(=O)N(C)C)[C@@]2(CCc3ccccc3C(=O)N2)C1 [CBK284792],102
5,COCCCNC(NC(=O)c1ccc(C)cc1)C(Cl)(Cl)Cl (stereo not drawn) [CBK263087],107
6,COc1cc(/C=C2\S/C(=N/c3ccc(S(N)(=O)=O)cc3)NC2=O)c(Br)cc1O [CBK265711],96.9
7,O=C(c1csnn1)N1CCc2ccccc21 [CBK200408],86
8,O=C(NCc1ccccc1)c1ccco1 [CBK086713],118
9,CCOC(=O)c1c(NC(=O)CNCc2cccnc2)sc2c1CCCC2 [CBK304577],94
10,COc1cc(CN2CCC3(CC2)CN(CCO)c2ccccc23)cc(OC)c1OC [CBK131524],94.9
11,CC1(C)CCCC1NC(=O)NCc1cccc(-c2nnc[nH]2)c1 (stereo not drawn) [CBK305236],83.9
12,CN(Cc1cccnc1)C(=O)Cc1ccc(-n2cccn2)cc1 [CBK297726],85.6
13,Cc1ccnc(NCC2CCN(CC(=O)Nc3cc(C)no3)C2)c1 (stereo not drawn) [CBK306121],91.3
14,CC(C)(N)CNC(=O)c1cc(C(C)(C)C)nn1Cc1ccc(Cl)cc1Cl [CBK107296],95.6
15,COc1cc(C)ccc1S(=O)(=O)Nc1cccc2cc[nH]c12 [CBK159511],81.8
16,CC(C)(CN)c1ccccc1 [CBK012106C],81.6
17,CCN(CC)c1nc(Cl)c(C#N)c2c1CN(C)CC2 [CBK009140],99.2
18,Cc1occc1-c1nnc(SCC(=O)Nc2c(C)n(C)n(-c3ccccc3)c2=O)o1 [CBK269042],90.9
19,N#Cc1ccc(C(=O)N2CC[C@H]3NC(=O)N(c4ccccc4)C(=O)[C@H]32)cc1 [CBK289282],80.5
20,OCc1nc2cc3cn[nH]c3cc2[nH]1 [CBK016203],86.5
21,Cc1ccccc1C(NC(=O)C1CCN(S(=O)(=O)C(C)C)CC1)c1ccccn1 (stereo not drawn) [CBK059711],104
22,O=C(Nc1ccc(Cl)cc1)NC1(C(=O)NCc2ccncc2)CCCCC1 [CBK174259],100
23,CC(C)(C)C(=O)Nc1cccc(OC(F)(F)C(F)Cl)c1 (stereo not drawn) [CBK018091],95

row,Compound,"viability at 28.5 h, 10 µM [%]"
1,CN(C)Cc1cc(C[C@@H]2C[C@H](NCc3ccccn3)C2(C)C)no1 [CBK289313],92.3
2,CCC1(C)CC(C(N)=S)CCO1 (stereo not drawn) [CBK008954],97
3,CCn1c(=O)c(C(=O)NCCN2CCCCC2)c(O)c2ccccc21 [CBK261432C],97.7
4,O=C(NC1Cc2ccccc2C1)c1cncnc1 [CBK200262],119
5,O=C(Oc1ccc(-c2cnc3ccccc3n2)cc1)c1ccc(S(=O)(=O)N2CCCCC2)cc1 [CBK267812],93.7
6,CC(=O)Nc1ccc(NC(=O)CC2SCCNC2=O)cc1 (stereo not drawn) [CBK269921],89.6
7,CC1=C[C@@H](CO)[C@H](C(C)C)C[C@H]1Cc1nnc(Cc2c[nH]c3ccccc23)o1 [CBK289223],89.1
8,O=C(O)C[C@]1(C(=O)Nc2ccc(F)cc2)CC(/C=C/c2ccccc2)=NO1 [CBK286608],87.3
9,Cc1cc2c(cc3c(=O)n(CC(=O)NC4CCC4)nc(C)n32)s1 [CBK284118],107
10,Cc1cccnc1CN1CCC2(CCc3ccccc3C(=O)N2)C1 (stereo not drawn) [CBK284611],96.4
11,COc1ccc(-c2nnc(SCC(=O)Nc3cc(C)on3)n2C2CCCCC2)cc1 [CBK297510],84.1
12,CCOC(=O)c1cccc(NS(=O)(=O)c2c(C)noc2C)c1 [CBK034339],110
13,COc1ccc(C(=O)NC2CCCNC2=O)s1 (stereo not drawn) [CBK282938],88.4
14,O=C(Nc1cccc2ccccc12)N1CCN(Cc2ccc3c(c2)OCO3)CC1 [CBK074747],89
15,Cc1ccc(S(=O)(=O)NCC(=O)Nc2ccc(Cl)nc2)cc1 [CBK091355],96.1
16,CN(C)CCC1CCCCN1C(=O)C1C2CCCCC21 (stereo not drawn) [CBK282055],98.9
17,Cc1ccc(-c2nc(C)sc2CC(=O)N(C)CCN(C)C)cc1 [CBK282175],112
18,O=C(CN1CCC(C(=O)c2ccc(F)cc2)CC1)c1ccsc1 [CBK149137],95.5
19,Cc1ccc(CNC(=O)N2CCC3(CC2)OCCc2c3[nH]c3ccccc23)cc1 [CBK047121],93.3
20,CN1CCN(c2ccc(-c3cc(NC4CCCCC4)ncn3)cn2)CC1 [CBK090899],96.7

# Same assay, conditions: human, hela cells, % viability, bulk resorufin, single well
row,Compound,"viability at 28.5 h, 10 µM [%]"
1,CC1CC1C(=O)N1CCC(C#N)(c2ccccc2)CC1 (stereo not drawn) [CBK091402],99
